Data taken from US9994570B2, “Bridged diazepane orexin receptor antagonists” (MERCK SHARP & DOHME CORP., priority 2014, dated 2018).
pIC50: −log10 of the molar value.

How the values were obtained:
[1] = biological target: T1, human orexin-2 receptor (Homo sapiens, UniProt O43614); assay: FLIPR Ca2+ flux assay, OX2R; format: cell-based; conditions: for pIC50: CHO cells expressing the human orexin-2 receptor, agonist 70 pM Ala-6,12 orexin-A; for Fold Selective: OX1R FLIPR / OX2R FLIPR
T1 construct: expressed in transfected cells; host or cells: CHO cells (grown under G418 selection)
T1 sequence (O43614 1-444): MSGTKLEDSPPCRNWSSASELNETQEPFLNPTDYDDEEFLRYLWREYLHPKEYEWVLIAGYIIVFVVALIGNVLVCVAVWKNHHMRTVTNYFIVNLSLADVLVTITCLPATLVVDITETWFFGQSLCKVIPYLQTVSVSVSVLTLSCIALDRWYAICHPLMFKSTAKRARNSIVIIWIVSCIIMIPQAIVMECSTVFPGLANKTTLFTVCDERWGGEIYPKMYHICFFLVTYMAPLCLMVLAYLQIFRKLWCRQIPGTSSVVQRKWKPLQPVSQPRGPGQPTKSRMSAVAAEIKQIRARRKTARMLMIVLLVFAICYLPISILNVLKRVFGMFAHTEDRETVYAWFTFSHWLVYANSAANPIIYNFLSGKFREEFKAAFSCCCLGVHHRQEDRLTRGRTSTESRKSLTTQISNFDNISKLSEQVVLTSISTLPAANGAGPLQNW
Description: (§1) The utility of the compounds in accordance with the present invention as orexin receptor OX1R and/or OX2R antagonists may be readily determined without undue experimentation by methodology well known in the art, including the “FLIPR Ca^2+ Flux Assay” (Okumura et al., Biochem. Biophys. Res. Comm. 280:976-981, 2001). In a typical experiment the OX1 and OX2 receptor antagonistic activity of the compounds of the present invention was determined in accordance with the following experimental method. For intracellular calcium measurements, Chinese hamster ovary (CHO) cells expressing the rat orexin-1 receptor or the human orexin-2 receptor, are grown in Iscove's modified DMEM containing 2 mM L-glutamine, […], 1% hypoxanthine-thymidine supplement, 100 U/ml penicillin, 100 μg/ml streptomycin and 10% heat-inactivated fetal calf serum (FCS). The cells are seeded at 20,000 cells/well into Becton-Dickinson black 384-well clear bottom sterile plates coated with poly-D-lysine. All reagents were from GIBCO-Invitrogen Corp. The seeded plates are incubated overnight at 37° C. and 5% CO2. Ala-6,12 human orexin-A as the agonist is prepared as a 1 mM stock solution in 1% bovine serum albumin (BSA) and diluted in assay buffer (HBSS containing 20 mM HEPES, 0.1% BSA and 2.5 mM probenecid, pH7.4) for use in the assay at a final concentration of 70 pM. Test compounds are prepared as 10 mM stock solution in DMSO, then diluted in 384-well plates, first in DMSO, then assay buffer. On the day of the assay, cells are washed 3 times with 100 μl assay buffer and then incubated for 60 min (37° C., 5% CO2) in 60 μl assay buffer containing 1 μM Fluo-4AM ester, 0.02% pluronic acid, and 1% BSA. The dye loading solution is then aspirated and cells are washed 3 times with 100 μl assay buffer. 30 μl of that same buffer is left in each well. Within the Fluorescent Imaging Plate Reader (FLIPR, Molecular Devices), test compounds are added to the plate in a volume of 25 μl, incubated for 5 min and finally 25 μl of agonist is added. Fluorescence is measured for each well at 1 second intervals for 5 minutes and the height of each fluorescence peak is compared to the height of the fluorescence peak induced by 70 pM Ala-6,12 orexin-A with buffer in place of antagonist. For each antagonist, IC50 value (the concentration of compound needed to inhibit 50% of the agonist response) is determined. Alternatively, compound potency can be assessed by a radioligand binding assay (described in Bergman et. al. Bioorg. Med. Chem. Lett. 2008, 18, 1425-1430) in which the inhibition constant (Ki) is determined in membranes prepared from CHO cells expressing either the OX1 or OX2 receptor. The intrinsic orexin receptor antagonist activity of a compound which may be used in the present invention may be determined by these assays.

[2] = biological target: T2, rat orexin-1 receptor (Rattus norvegicus, UniProt P56718); assay: FLIPR Ca2+ flux assay, OX1R; format: cell-based; conditions: CHO cells expressing the rat orexin-1 receptor; agonist 70 pM Ala-6,12 orexin-A
T2 construct: expressed in transfected cells; host or cells: CHO cells (grown under G418 selection)
T2 sequence (P56718 1-416): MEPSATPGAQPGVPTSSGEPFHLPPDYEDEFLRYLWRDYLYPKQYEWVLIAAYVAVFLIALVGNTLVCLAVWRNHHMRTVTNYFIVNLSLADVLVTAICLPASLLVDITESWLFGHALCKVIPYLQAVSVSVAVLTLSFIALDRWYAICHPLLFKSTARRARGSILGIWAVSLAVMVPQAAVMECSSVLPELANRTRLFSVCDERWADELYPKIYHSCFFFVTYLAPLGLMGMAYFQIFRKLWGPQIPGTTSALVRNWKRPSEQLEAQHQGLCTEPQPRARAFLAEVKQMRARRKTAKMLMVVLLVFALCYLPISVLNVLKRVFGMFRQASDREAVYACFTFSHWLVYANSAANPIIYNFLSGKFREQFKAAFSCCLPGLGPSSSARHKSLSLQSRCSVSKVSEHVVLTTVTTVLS
Description: as §1

[3] = biological target: T1, human orexin-2 receptor; conditions: comparison compound disclosed in U.S. Pat. No. 8,685,961; cited from earlier work

Row | Structure (SMILES) | pIC50 [1] | Fold Selective [1] | pIC50 [2] | selectivity between the orexin-1 receptor and the orexin-2 receptor [3]
1 | Cc1cc(C)nc(N2CC3CC2CN(C(=O)c2cccnc2OCCC(F)(F)F)C3)n1 (stereo not shown) [Example 44, 6-(4,6-dimethylpyrimidin-2-yl)-3-{[2-(3,3,3-trifluoropropoxy)pyridin-3-yl]carbonyl}-3,6-diazabicyclo[3.2.1]octane] | 7.68 | 44 | 6.03 | 
2 | Cc1cc(C)nc(N2CC3CC2CN(C(=O)c2cccnc2OCC(C)O)C3)n1 (stereo not shown) [Example 45, 1-[(3-{[6-(4,6-dimethylpyrimidin-2-yl)-3,6-diazabicyclo[3.2.1]oct-3-yl]carbonyl}pyridin-2-yl)oxy]propan-2-ol] | 7.05 | >111 | < 5.00 | 
3 | CO[C@@H]1CCN(c2ncccc2C(=O)N2CC3CC(C2)N(c2nc(C)cc(C)n2)C3)C1 (stereo partly drawn) [Example 46, (6-(4,6-dimethylpyrimidin-2-yl)-3,6-diazabicyclo[3.2.1]octan-3-yl)(2-((R)-3-methoxypyrrolidin-1-yl)pyridin-3-yl)methanone] | 7.05 | >111 | < 5.00 | 
4 | Cc1cc(C)nc(N2CC3CC2CN(C(=O)c2nccnc2OC(C)C)C3)n1 (stereo not shown) [Example 52, 6-(4,6-dimethylpyrimidin-2-yl)-3-{[3-(1-methylethoxy)pyrazin-2-yl]carbonyl}-3,6-diazabicyclo[3.2.1]octane] | 7.22 | >167 | < 5.00 | 
5 | Cc1ccc(-n2nccn2)c(C(=O)N2CCCN(c3nc4ccccc4o3)CC2)c1 [Example B-3] |  |  |  | greater selectivity for the orexin-1 receptor than for the orexin-2 receptor

Continued by rising pIC50 [1], values first:

Row | pIC50 [1] | Fold Selective [1] | pIC50 [2] | Structure (SMILES) | selectivity between the orexin-1 receptor and the orexin-2 receptor [3]
6 | 7.41 | 165 | 5.19 | Cc1cc(C)nc(N2CC3CC2CN(C(=O)c2nccnc2OCC(C)(F)F)C3)n1 (stereo not shown) [Example 53, (3-(2,2-difluoropropoxy)pyrazin-2-yl)(6-(4,6-dimethylpyrimidin-2-yl)-3,6-diazabicyclo[3.2.1]octan-3-yl)methanone] | 
7 | 7.43 | 103 | 5.42 | Cc1cc(C)nc(N2CC3CC2CN(C(=O)c2nccnc2OCC2CC2)C3)n1 (stereo not shown) [Example 48, (3-(cyclopropylmethoxy)pyrazin-2-yl)(6-(4,6-dimethylpyrimidin-2-yl)-3,6-diazabicyclo[3.2.1]octan-3-yl)methanone] | 
8 | 7.44 | >278 | < 5.00 | Cc1cc(C)nc(N2CC3CC2CN(C(=O)c2nccnc2OCC(F)(F)F)C3)n1 (stereo not shown) [Example 50, 6-(4,6-dimethylpyrimidin-2-yl)-3-{[3-(2,2,2-trifluoroethoxy)pyrazin-2-yl]carbonyl}-3,6-diazabicyclo[3.2.1]octane] | 
9 | 7.48 | 117 | 5.41 | Cc1cc(C)nc(N2CC3CC2CN(C(=O)c2nccnc2OCC(F)F)C3)n1 (stereo not shown) [Example 49, 3-{[3-[2,2-difluoroethoxy)pyrazin-2-yl]carbonyl}-6-(4,6-dimethylpyrimidin-2-yl)-3,6-diazabicyclo[3.2.1]octane] | 
10 | 7.62 | 112 | 5.57 | Cc1cc(C)nc(N2CC3CC2CN(C(=O)c2nccnc2OCC(F)(F)C(F)F)C3)n1 (stereo not shown) [Example 51, (6-(4,6-dimethylpyrimidin-2-yl)-3,6-diazabicyclo[3.2.1]octan-3-yl)(3-(2,2,3,3-tetrafluoropropoxy)pyrazin-2-yl)methanone] | 
11 | 7.82 | 42 | 6.20 | Cc1cc(C)nc(N2CC3CC2CN(C(=O)c2cccnc2OCC2CCC2)C3)n1 (stereo not shown) [Example 42, 3-{[2-(cyclobutylmethoxy)pyridin-3-yl]carbonyl}-6-(4,6-dimethylpyrimidin-2-yl)-3,6-diazabicyclo[3.2.1]octane] | 
12 | 8.30 | 41 | 6.69 | Cc1cc(C)nc(N2CC3CC2CN(C(=O)c2cccnc2OCC(F)(F)C(F)F)C3)n1 (stereo not shown) [Example 43, 6-(4,6-dimethylpyrimidin-2-yl)-3-{[2-(2,2,3,3-tetrafluoropropoxy)pyridin-3-yl]carbonyl}-3,6-diazabicyclo[3.2.1]octane] | 
